Measurements: patent US20070010548A1, “Compounds having inhibitive activity of phosphatidylinositol 3-kinase and methods of use thereof” (ZENTARIS GmbH, priority 2003, published 2007)
Read-outs that look alike come from different tables or passages of the source.

Assays:
[1] = system: SKOV3 cells; test: MTT cell proliferation/viability assay, SKOV3 ovarian cancer cells; format: cell-based; conditions: Homo sapiens
Description: (§1) The ovarian cancer cell line SKOV3 is not altered in PI 3-K signaling and should be less sensitive to the anti-proliferative effects produced by treatment with PI 3-K inhibitors, while the OVCAR3 cell line, which is altered in PI 3-K signaling, via amplification of PI 3-K activity, should be sensitive. SKOV3 cells were seeded in 96-well cell culture plates (Greiner) at a density of 20,000 cells per well in McCoys 5A media (GibcoBRL) with 10% fetal calf serum and 20 mM L-glutamine. OVCAR3 cells were seeded at a density of 15,000 cells per well in RPMI 1640 media (GibcoBRL) containing 20 mM 1-glutamine, 0.01 ng/ml bovine insulin, 10 mM Hepes pH 7.4, 1 mM sodium pyruvate, 2.5 g/L glucose, and 20% fetal calf serum. After 24 hours, compounds were added to cell media to a final concentration of 1 μM, and the cells were grown in the presence of the compounds for 48 hours, in media containing 0.5% fetal calf serum. Viability was determined using a MTT cell proliferation assay (R and D Systems) and comparison to DMSO alone controls (100% viability). Compounds which result in reduced viability may act either by inhibiting cell proliferation or by inducing apoptosis (programmed cell death).
(§2) Many of these also show similar selective effects on cell growth. Table 2 summarizes the results of two separate cell proliferation experiments for selected compounds of the present invention.

[2] = system: OVCAR3 cells; test: MTT cell proliferation/viability assay, OVCAR3 ovarian cancer cells; format: cell-based; conditions: Homo sapiens
Description: as §1, §2

[3] = system: tumor cells altered in PI 3-K/PTEN; test: Cellular growth inhibition assays on tumor cells altered in PI 3-K/PTEN; format: cell-based; conditions: for IC50: approximate, read-out: Approx. mIC50 in cellular assays
Description: as §1
Selected compounds were evaluated against paired ovarian cancer cell lines at a range of concentrations to determine effective concentrations for growth inhibition.
MDA-MB-468 and MDA-MB-231 cells were seeded in 96-well cell culture plates (Greiner) at a density of 20,000 cells per well in RMPI media (GibcoBRL) with 10% fetal calf serum and 20 mM L-glutamine. After 24 hours, compounds were added to cell media to a final concentrations ranging from 10 nM to 100 μM, and the cells were grown in the presence of the compounds for 48 hours in RMPI media containing 0.5% fetal calf serum and 20 mM L-glutamine. Viability was determined using a MTT cell proliferation assay (R and D Systems) and comparison to DMSO alone controls (100% viability). Compounds which result in reduced viability may act either by inhibiting cell proliferation or by inducing apoptosis (programmed cell death). […] Selected compounds were evaluated against the paired breast cancer cell lines at a range of concentrations to determine effective concentrations for growth inhibition.
Table 3 summarizes the data for several compounds of this structural group, including the IC50 for inhibition of enzyme activity in vitro, cellular mIC50 and anti-proliferative activity against tumor cells altered in PI 3-K mediated signaling, and effects on cellular levels of phospho-Akt.

[4] = system: MA-MB-468 cells; test: Three dimensional matrix model of tumor cell growth; format: cell-based; conditions: Homo sapiens, read-out: Percent Inhibition of Tumor Cell Viability
Description: PI 3-K inhibitors are assayed for effects on tumor cells grown in three-dimensional matrix that more closely mimics the environment of a tumor than other cell culture models. MA-MB-468 cells are mixed in a matrix solution, such as Matrigel (13D Biosciences) at 2×10 ^6 cells/ml and 100 μl of this mixture added to each well of a 24 well cell culture plate. Each well is 6.5 mm in diameter and 2×10^5 cells are added per well. Once the matrix is solidified, RMPI media containing 10% fetal calf serum and 2 mM L-glutamine is added to each well. After approximately 14 days of culture, the compounds are added to cell media at final concentrations ranging from 10 nM to 100 μM, and the cells are grown in the presence of the compounds for 7 days in RMPI media containing 0.5% fetal calf serum and 20 mM L-glutamine.
Following this treatment, cell growth in the three dimensional matrix can be measured using a cell viability assay such as the CellTiter 96 One Solution Cell Proliferation Assay (Promega, G3582). […] of assay solution is added per well, the cells are incubated for 3 hours. Absorbance at 550 nm is determined for each well and used directly as being equivalent of cell number. In addition, live and dead cells can be distinguished and observed using fluorescence microscopy after staining with Fluorescein diacetate (Sigma), which labels live cells, and propidium iodide (Sigma), which labels dead cells.
The PI 3-K inhibitors of the present invention show anti-proliferative effects in this model of tumor cell growth, as shown by the representative data in Table 6, which compares the anti-proliferative effects of one inhibitor compared to the effects of the benchmark PI 3-K inhibitor LY294002. The PI 3-K inhibitors of the present invention also show enhanced anti-proliferative activity when combined with other cancer drugs, for example paclitaxel or doxorubicin.

[5] = system: PI 3-K; conditions: background literature; read-out: IC50 (inhibits PI 3-K); cited from earlier work
[6] = SK-OV-3, 48 hours, MTT, DMSO alone controls = 100% viability, Trial 1, read-out: Trial 1 SKOV-3 (viability)
[7] = SK-OV-3, 48 hours, MTT, DMSO alone controls = 100% viability, Trial 2, read-out: Trial 2 SKOV-3 (viability)
[8] = SK-OV-3, average of Trial 1 and Trial 2, 48 hours, read-out: Average SKOV3 (viability)
[9] = OVCAR-3, 48 hours, MTT, DMSO alone controls = 100% viability, Trial 1, read-out: Trial 1 OVCAR3 (viability)
[10] = OVCAR-3, 48 hours, MTT, DMSO alone controls = 100% viability, Trial 2, read-out: Trial 2 OVCAR3 (viability)
[11] = OVCAR-3, average of Trial 1 and Trial 2, 48 hours, read-out: average OVCAR-3 (viability)

| SMILES | viability at 1 µM [1, 6] | viability at 1 µM [1, 7] | viability at 1 µM [1, 8] | viability at 1 µM [2, 9] | viability at 1 µM [2, 10] | viability at 1 µM [2, 11] | Anti-proliferative effects on tumor cells altered in PI 3-K/PTEN [3] | IC50 [3] | cytotoxicity at 1 µM ([4]; Concentration 1 μM) | cytotoxicity at 5 µM ([4]; Concentration 5 μM) | cytotoxicity at 10 µM ([4]; Concentration 10 μM) | cytotoxicity at 50 µM ([4]; Concentration 50 μM) | IC50 [5] |
| --- | --- | --- | --- | --- | --- | --- | --- | --- | --- | --- | --- | --- | --- |
| CC1(C)CC(=O)C2=C(C1)Nc1c(c(-c3ccccc3)nn1-c1ccc(F)cc1)C2c1ccc(C(C)(C)C)cc1 (stereo not drawn) [Compound 963924] | 100% | 100% | 100% | 61% | 66.4% | 63.7% | Yes | < 20 µM |  |  |  |  |  |
| CCOc1ccc(C2C3=C(CC(C)(C)CC3=O)Nc3c2c(C(C)(C)C)nn3C(C)(C)C)cc1 (stereo not drawn) [Compound 963977] | 98% | 81.7% | 89.8% | 41% | 59.6% | 50.3% |  |  |  |  |  |  |  |
| CCOc1ccc(C2C3=C(CC(C)(C)CC3=O)Nc3c2c(C(C)(C)C)nn3-c2ccc(Cl)cc2)cc1 (stereo not drawn) [Compound 964127] | 100% | 100% | 100% | 42% | 76.2% | 59.1% | Yes | < 20 µM |  |  |  |  |  |
| COc1cc(OC)cc(C2C3=C(CC(C)(C)CC3=O)Nc3c2c(C(C)(C)C)nn3-c2ccc(Cl)cc2)c1 (stereo not drawn) [Compound 964144] | 100% | 100% | 100% | 54% | 66.2% | 60.1% | Yes | < 20 µM |  |  |  |  |  |
| Cc1cccc(-n2nc(C(C)(C)C)c3c2NC2=C(C(=O)CC(C)(C)C2)C3c2ccc(C(C)(C)C)cc2)c1C (stereo not drawn) [Compound 964336] | 96% | 83% | 89.5% | 32% | 56% | 44% | Yes | < 20 µM |  |  |  |  |  |
| Cc1ccc(C2C3=C(CC(C)(C)CC3=O)Nc3c2c(C(C)(C)C)nn3-c2cccc(F)c2)cc1 (stereo not drawn) [Compound 964352] | 93% | 74% | 83.5% | 33% | 52.9% | 43% | Yes | < 20 µM |  |  |  |  |  |
| O=c1cc(N2CCOCC2)oc2c(-c3ccccc3)cccc12 [LY294002, reference compound] |  |  |  |  |  |  |  |  | < 5% | 50% | 60% | 90% |  |
| O=c1c(O)c(-c2ccc(O)c(O)c2)oc2cc(O)cc(O)c12 [quercetin] |  |  |  |  |  |  |  |  |  |  |  |  | 3.8 µM |
